Laboratory results taken from patent publication EP2697230B1, “COMPOUNDS FOR THE TREATMENT OF HEPATITIS C” (priority 2011, dated 2012).
Where two headings read alike, the source gives them in different places.

Tested on: HCV pseudoparticles, genotype 1a HCV E1 and E2 envelope (H77C isolate)
Assay: HCV pseudoparticle infection assay (luciferase reporter, Huh7 cells)
Type: cell-based
[1] = class symbol, HCV pseudoparticles genotype 1a (H77C), luciferase 2 days after infection, read-out: EC50 (nM) 1a (H77C)
[2] = numeric value, HCV pseudoparticles genotype 1a (H77C), luciferase 2 days after infection, read-out: EC50 (nM) 1a (H77C)
[3] = Hepatitis C virus, Huh-7, 48 h, read-out: EC50 (nM) 1a (H77C), class symbol, HCV pseudoparticles genotype 1a (H77C), luciferase 2 days after infection
[4] = Hepatitis C virus, Huh-7, 48 h, read-out: EC50 (nM) 1a (H77C), numeric value, HCV pseudoparticles genotype 1a (H77C), luciferase 2 days after infection

Row | SMILES | EC50 [3] [nM] | further results
1 | O=C1NCCNCCNc2nc(nc(OCC(F)(F)F)n2)Nc2ccc1cc2 [Example 0001] | – | EC50 [1]: 1000 to 5000 nM; EC50 [2]: 4200 nM
2 | O=C1NCCCCCCCCNc2nc(nc(OCC(F)(F)F)n2)Nc2ccc1cc2 [Example 0002] | – | EC50 [1]: 0.1 to 100 nM
3 | O=C1NCCCCCCCCCCNc2nc(nc(OCC(F)(F)F)n2)Nc2ccc1cc2 [Example 0003] | – | EC50 [1]: 100 to 1000 nM; EC50 [2]: 101 nM
4 | O=C1NCCCOCCCCOCCCNc2nc(nc(OCC(F)(F)F)n2)Nc2ccc1cc2 [Example 0004] | – | EC50 [1]: 0.1 to 100 nM; EC50 [2]: 48.4 nM
5 | O=C1NCCCCNC(=O)C2(CC2)Nc2nc(nc(OCC(F)(F)F)n2)Nc2ccc1cc2 [Example 0006] | – | EC50 [1]: 1000 to 5000 nM
6 | O=C1NC2CNCC2C(=O)NCCCCCCOc2ccc(cc2)CNc2nc(nc(OCC(F)(F)F)n2)Nc2ccc1cc2 (stereo not shown) [Example 0007] | – | EC50 [1]: 0.1 to 100 nM; EC50 [2]: 8.31 nM
7 | CCN(CC)CCN1CCNC(=O)c2ccc(cc2)Nc2nc(nc(OCC(F)(F)F)n2)Nc2ccc(cc2)C1=O [Example 0021] | 100 to 1000 | –
8 | CN1CCCNC(=O)c2ccc(cc2)Nc2nc(nc(OCC(F)(F)F)n2)Nc2ccc(cc2)C(=O)NCCC1 [Example 0022] | 100 to 1000 | –
9 | CN(C)CCCN1CCCNC(=O)c2ccc(cc2)Nc2nc(nc(OCC(F)(F)F)n2)Nc2ccc(cc2)C1=O [Example 0023] | 100 to 1000 | –
10 | CN1CCCN(C)CCCN(C)C(=O)c2ccc(cc2)Nc2nc(nc(OCC(F)(F)F)n2)Nc2ccc(cc2)C(=O)N(C)CCC1 [Example 0024] | 1000 to 5000 | EC50 [4]: 16300 nM
11 | O=C1NCCCCCCNC(=O)c2ccc(cc2)Nc2nc(nc(OCC(F)(F)F)n2)NCc2ccc1cc2 [Example 0032] | 100 to 1000 | –
12 | O=C1NCCCCNC(=O)c2ccc(cc2)Nc2nc(nc(OCC(F)(F)F)n2)NCc2ccc1cc2 [Example 0033] | 100 to 1000 | –
13 | CCN(CC)CCN1CCNC(=O)c2ccc(cc2)CNc2nc(nc(OCC(F)(F)F)n2)Nc2ccc(cc2)C1=O [Example 0035] | 1000 to 5000 | –
14 | O=C1NCCCN2CCN(CCCNC(=O)c3ccc(cc3)Nc3nc(nc(OCC(F)(F)F)n3)NCc3ccc1cc3)CC2 [Example 0039] | 100 to 1000 | –
15 | CN1CCCN(C)CCCN(C)C(=O)c2ccc(cc2)Nc2nc(nc(OCC(F)(F)F)n2)NCc2ccc(cc2)C(=O)N(C)CCC1 [Example 0041] | 1000 to 5000 | EC50 [4]: 21600 nM
16 | CN1CCNC(=O)c2ccc(cc2)CNc2nc(nc(OCC(F)(F)F)n2)Nc2ccc(cc2)C(=O)NCC1 [Example 0042] | 100 to 1000 | –
17 | O=C1NCc2ccc(cc2)CNc2nc(nc(OCC(F)(F)F)n2)Nc2ccc(cc2)CNC(=O)Nc2cccc(c2)N1 [Example 0051] | 100 to 1000 | –
18 | O=C1NCc2ccc(cc2)Nc2nc(nc(OCC(F)(F)F)n2)NCc2cccc(c2)CNC(=O)Nc2cccc(c2)N1 [Example 0052] | 100 to 1000 | –
19 | O=C1NCCCCNC(=O)NCc2ccc(cc2)Nc2nc(nc(OCC(F)(F)F)n2)NCc2ccc(cc2)CN1 [Example 0053] | 100 to 1000 | –
20 | O=C1NCc2ccc(cc2)Nc2nc(nc(OCC(F)(F)F)n2)NCc2cccc(c2)CNC(=O)NC2CCC(CC2)CC2CCC(CC2)N1 [Example 0054] | 1000 to 5000 | EC50 [4]: 5210 nM
21 | O=C1NCCCCCCNC(=O)NCc2ccc(cc2)Nc2nc(nc(OCC(F)(F)F)n2)NCc2ccc(cc2)CN1 [Example 0055] | 100 to 1000 | –
22 | O=C1NCCCCCCNC(=O)NCc2cccc(c2)CNc2nc(nc(OCC(F)(F)F)n2)Nc2ccc(cc2)CN1 [Example 0056] | 100 to 1000 | –
23 | CC1(C)NC(=O)NCc2ccc(cc2)CNc2nc(nc(OCC(F)(F)F)n2)Nc2ccc(cc2)CNC(=O)NC(C)(C)c2cccc1c2 [Example 0057] | 100 to 1000 | –

Row | SMILES | EC50 [3] [nM] | further results
24 | CC1(C)NC(=O)NCc2ccc(cc2)Nc2nc(nc(OCC(F)(F)F)n2)NCc2cccc(c2)CNC(=O)NC(C)(C)c2cccc1c2 [Example 0058] | 100 to 1000 | –
25 | O=C1NCc2ccc(cc2)Nc2nc(nc(OCC(F)(F)F)n2)NCc2cccc(c2)CNC(=O)c2ccccc21 [Example 0059] | 0.1 to 100 | –
26 | O=C1NCc2ccc(cc2)Nc2nc(nc(OCC(F)(F)F)n2)NCc2cccc(c2)CNC(=O)c2ccc1cc2 [Example 0060] | 100 to 1000 | –
27 | O=C1CCCC(=O)NCc2ccc(cc2)Nc2nc(nc(OCC(F)(F)F)n2)NCc2ccc(cc2)CN1 [Example 0061] | 100 to 1000 | –
28 | O=C1CCCC(=O)NCc2cccc(c2)CNc2nc(nc(OCC(F)(F)F)n2)Nc2ccc(cc2)CN1 [Example 0062] | 100 to 1000 | –
29 | O=C1CCCCCCC(=O)NCc2ccc(cc2)Nc2nc(nc(OCC(F)(F)F)n2)NCc2ccc(cc2)CN1 [Example 0063] | 100 to 1000 | –
30 | O=C1CCCCCCCCC(=O)NCc2cccc(c2)CNc2nc(nc(OCC(F)(F)F)n2)Nc2ccc(cc2)CN1 [Example 0065] | 100 to 1000 | –
31 | O=C1NCc2ccc(cc2)CNc2nc(nc(OCC(F)(F)F)n2)Nc2ccc(cc2)CNC(=O)OCCOCCOCCO1 [Example 0067] | 100 to 1000 | –
32 | O=C1NCc2ccc(cc2)Nc2nc(nc(OCC(F)(F)F)n2)NCc2cccc(c2)CNC(=O)OCCOCCOCCO1 [Example 0068] | 100 to 1000 | –
33 | O=C1COCC(=O)NCc2ccc(cc2)Nc2nc(nc(OCC(F)(F)F)n2)NCc2ccc(cc2)CN1 [Example 0069] | 0.1 to 100 | EC50 [4]: 78.8 nM
34 | O=C1COCC(=O)NCc2cccc(c2)CNc2nc(nc(OCC(F)(F)F)n2)Nc2ccc(cc2)CN1 [Example 0070] | 0.1 to 100 | –
35 | CC1(C)C(=O)NCc2ccc(cc2)CNc2nc(nc(OCC(F)(F)F)n2)Nc2ccc(cc2)CNC1=O [Example 0071] | 100 to 1000 | –
36 | CC1(C)C(=O)NCc2ccc(cc2)Nc2nc(nc(OCC(F)(F)F)n2)NCc2cccc(c2)CNC1=O [Example 0072] | 0.1 to 100 | –
37 | O=C1NCCCCCNc2cccc(c2)C2(CC2)Nc2nc(nc(OCC(F)(F)F)n2)Nc2ccc1cc2 [Example 3001] | 0.1 to 100 | –
38 | O=C1CNC(=O)c2ccc(cc2)Nc2nc(nc(OCC(F)(F)F)n2)NCc2ccc(cc2)NC(=O)CN1 [Example 3002] | 100 to 1000 | –
39 | O=C1CNC(=O)CNC(=O)c2ccc(cc2)Nc2nc(nc(OCC(F)(F)F)n2)NCc2ccc(cc2)NC(=O)CN1 [Example 3003] | 100 to 1000 | –
40 | O=C1NS(=O)(=O)C/C=C/CCCOc2ccc(cc2)CNc2nc(nc(OCC(F)(F)F)n2)Nc2ccc1cc2 [Example 3005] | 1000 to 5000 | –
41 | O=C1CNC(=O)c2ccc(cc2)Nc2nc(nc(OCC(F)(F)F)n2)NCc2ccc(cc2)OCC=CCS(=O)(=O)N1 [Example 3007] | 100 to 1000 | EC50 [4]: 557 nM
42 | O=C1CCCNC(=O)c2ccc(cc2)Nc2nc(nc(OCC(F)(F)F)n2)NCc2ccc(cc2)OCC=CCS(=O)(=O)N1 [Example 3010] | 0.1 to 100 | EC50 [4]: 20.3 nM
43 | O=C1CCCCNC(=O)c2ccc(cc2)Nc2nc(nc(OCC(F)(F)F)n2)NCc2ccc(cc2)OC/C=C/S(=O)(=O)N1 [Example 3012] | 100 to 1000 | EC50 [4]: 275 nM
44 | O=C1NCCCCNCCOc2ccc(cc2)CNC2=N/C(=N\c3ccc1cc3)N=C(OCC(F)(F)F)N2 [Example 4001, (2E)-5-(2,2,2-trifluoroethoxy)-14-oxa-2,4,6,8,17,22,31-heptaazatetracyclo[22.2.2.2∼10,13∼.1∼3,7∼]hentriaconta-1(26),2,4,7(31),10,12,24,27,29-nonaen-23-one] | 0.1 to 100 | –
45 | CC(=O)N1CCCCNC(=O)c2ccc(cc2)Nc2nc(nc(OCC(F)(F)F)n2)NCc2ccc(cc2)OCC1 [Example 4002] | 100 to 1000 | EC50 [4]: 105 nM
46 | CCC(=O)N1CCCCNC(=O)c2ccc(cc2)Nc2nc(nc(OCC(F)(F)F)n2)NCc2ccc(cc2)OCC1 [Example 4003] | 0.1 to 100 | –
